Measurements from patent US10150757B2, “Quinazolinone derivatives as PARP inhibitors” (Janssen Pharmaceutica NV, priority 2004, dated 2018).

Target: PARP-1 enzyme (Homo sapiens, UniProt P09874)
Sequence (P09874 whole entry): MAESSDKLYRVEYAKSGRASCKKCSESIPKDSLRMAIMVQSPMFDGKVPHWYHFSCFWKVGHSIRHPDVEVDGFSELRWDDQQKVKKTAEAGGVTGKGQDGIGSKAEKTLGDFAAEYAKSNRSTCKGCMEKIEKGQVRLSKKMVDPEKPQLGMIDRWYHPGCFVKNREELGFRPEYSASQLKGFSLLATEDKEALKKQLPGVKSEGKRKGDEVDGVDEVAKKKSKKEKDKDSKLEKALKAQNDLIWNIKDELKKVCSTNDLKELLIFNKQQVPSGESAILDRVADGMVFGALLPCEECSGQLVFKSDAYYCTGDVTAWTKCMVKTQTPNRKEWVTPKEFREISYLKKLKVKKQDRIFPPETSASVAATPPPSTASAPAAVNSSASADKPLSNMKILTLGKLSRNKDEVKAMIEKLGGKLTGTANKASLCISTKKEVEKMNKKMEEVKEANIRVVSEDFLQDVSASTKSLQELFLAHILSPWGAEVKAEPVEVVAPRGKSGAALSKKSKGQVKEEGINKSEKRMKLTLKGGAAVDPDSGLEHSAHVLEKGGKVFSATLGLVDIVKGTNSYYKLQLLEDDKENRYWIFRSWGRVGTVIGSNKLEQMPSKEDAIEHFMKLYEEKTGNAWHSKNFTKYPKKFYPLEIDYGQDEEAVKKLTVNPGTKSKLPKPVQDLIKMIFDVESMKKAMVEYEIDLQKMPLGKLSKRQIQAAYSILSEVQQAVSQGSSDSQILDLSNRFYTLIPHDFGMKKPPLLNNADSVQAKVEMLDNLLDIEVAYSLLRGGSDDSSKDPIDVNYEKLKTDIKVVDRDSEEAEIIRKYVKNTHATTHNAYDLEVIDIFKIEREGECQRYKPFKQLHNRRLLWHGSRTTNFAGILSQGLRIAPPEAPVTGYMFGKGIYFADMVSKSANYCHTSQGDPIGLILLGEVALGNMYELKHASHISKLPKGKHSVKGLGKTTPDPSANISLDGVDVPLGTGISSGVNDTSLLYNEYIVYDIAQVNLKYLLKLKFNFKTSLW
Experiment: In vitro filtration assay for PARP-1 inhibitory activity
Format: biochemical
Conditions: [32P]-NAD, histones, nicked DNA; read-out: in vitro filter assay PARP-1 pIC50 (converted)
Procedure: In Vitro Filtration Assay for PARP-1 Inhibitory Activity
Compounds of the present invention were tested in an in vitro filtration assay assessing PARP-1 activity (triggered in the presence of nicked DNA) by means of its histone poly (ADP-ribosyl)ation activity using [^32P]-NAD as ADP-ribosyl donor. The radioactive ribosylated histones were precipitated by trichloroacetic acid (TCA) in 96-well filterplates and the incorporated [^32P] measured using a scintillation counter
A mixture of histones (stock solution: 5 mg/ml in H2O), NAD^+ (stock solution: 100 mM in H2O), and [^32P]-NAD^+ in incubation buffer (50 mM Tris/HCl, pH 8; 0.2 mM DTT; 4 mM MgCl2) was made. A mixture of the PARP-1 enzyme (5-10 μg/ml) and nicked DNA was also made. The nicked DNA was prepared as described in the in vitro SPA for PARP-1 inhibitory activity. Seventy-five μl of the PARP-1 enzyme/DNA mixture together with 1 μl of compound in DMSO and 25 μl of histones-NAD^+/[^32P]-NAD^+ mixture was added per well of a 96-well filterplate (0.45 μm, supplier Millipore). The final concentrations in the incubation mixture were 2 μg/ml for the histones, 0.1 mM for the NAD^+, […] (0.5 μC) for the [^32P]-NAD^+ and 2 μg/ml for the nicked DNA. Plates were incubated for 15 min. at room temperature and the reaction was terminated by the addition of 10 μl ice cold 100% TCA followed by the addition of 10 μl ice-cold BSA solution (1% in H2O). The protein fraction was allowed to precipitate for 10 min. at 4° C. and plates were vacuum filtered. The plates were subsequently washed with, for each well, 1 ml of 10% ice cold TCA, 1 ml of 5% ice cold TCA and 1 ml of 5% TCA at room temperature. Finally 100 μl of scintillation solution (Microscint 40, Packard) was added to each well and the plates were transferred to a TopCountNXT™ (supplier: Packard) for scintillation counting and values were expressed as counts per minute (cpm). For each experiment, controls (containing PARP-1 enzyme and DMSO without compound), a blank incubation (containing DMSO but no PARP-1 enzyme or compound) and samples (containing PARP-1 enzyme and compound dissolved in DMSO) were run in parallel. All compounds tested were dissolved and eventually further diluted in DMSO. In first instance, compounds were tested at a concentration of 10^−5M. […] In each test, the blank value was subtracted from both the control and the sample values. The control sample represented maximal PARP-1 enzyme activity. For each sample, the amount of cpm was expressed as a percentage of the mean cpm value of the controls. […] Herein the effects of test compounds are expressed as pIC50 (the negative log value of the IC50-value).
`O=c1[nH]c(NCCCN2CCC(O)(c3ccc(Cl)cc3)CC2)nc2ccccc12` [Compound 2] gave an IC50 of 973 nM. Work on `CC1(C)Cc2c(N)c(Cl)cc(C(=O)NC3CCN(CCCNc4nc(O)c5ccccc5n4)CC3)c2O1` [Compound 4] yielded an IC50 of 3650 nM. `CC1(C)Cc2c(N)c(Cl)cc(C(=O)NC3CCN(CCCCNc4nc(O)c5ccccc5n4)CC3)c2O1` [Compound 5] showed an IC50 of 2640 nM. `CO[C@@H]1CN(CCCNc2nc(O)c3ccccc3n2)CC[C@@H]1NC(=O)c1cc(Cl)c(N)c2c1OCCC2` [Compound 6] showed an IC50 of 2740 nM. `Nc1c(Cl)cc(C(=O)OCC2CCN(CCNc3nc4ccccc4c(=O)[nH]3)CC2)c2c1OCCO2` [Compound 7] showed an IC50 of 3440 nM. Work on `CO[C@@H]1CN(CCCNc2nc(O)c3ccccc3n2)CCN1NC(=O)c1cc(Cl)c(N)c2c1OC(C)(C)C2` [Compound 8] yielded an IC50 of 2110 nM. `CO[C@H]1CN(CCCNc2nc3ccccc3c(=O)[nH]2)CC[C@H]1NC(=O)c1cc(Cl)cc2c1OC(C)(C)C2` [Compound 18] showed an IC50 of 4520 nM. `O=c1[nH]c(NCCCN2CCC(c3c[nH]c4ccccc34)CC2)nc2ccccc12` [Compound 20] showed an IC50 of 5300 nM. With `O=c1[nH]c(NCCN2CCC(c3n[nH]c4cc(F)ccc34)CC2)nc2ccccc12` [Compound 21] the IC50 was 520 nM. In the case of `O=c1[nH]c(NCCCN2CCN(c3n[nH]c4ccccc34)CC2)nc2ccccc12` [Compound 22], the IC50 is reported as 467 nM. Compound `O=C(NC1CCN(CCCNc2nc3ccccc3c(=O)[nH]2)CC1)c1ccccc1` [Compound 23] has an IC50 of 2540 nM. `O=c1[nH]c(NCCCN2CCN(c3nsc4ccccc34)CC2)nc2ccccc12` [Compound 24] gave an IC50 of 4950 nM. With `O=c1[nH]c(NCCCN2CCC(c3n[nH]c4cc(F)ccc34)CC2)nc2ccccc12` [Compound 25] the IC50 was 2320 nM. Compound `O=c1[nH]c(NCCCN2CCC(c3noc4cc(F)ccc34)CC2)nc2ccccc12` [Compound 26] has an IC50 of 1630 nM. `O=c1[nH]c(NCCCN2CCN(c3n[nH]c4cc(F)ccc34)CC2)nc2ccccc12` [Compound 27] gave an IC50 of 424 nM. `CCCCn1cc(C2CCN(CCCNc3nc4ccccc4c(=O)[nH]3)CC2)c2ccccc21` [Compound 28] gave an IC50 of 2820 nM. `O=c1[nH]c(NCCCN2CCC(n3c(=O)[nH]c4ccccc43)CC2)nc2ccccc12` [Compound 29] showed an IC50 of 4650 nM. `O=c1nc(NCCCN2CCC(Nc3nccc4ccccc34)CC2)[nH]c2ccccc12` [Compound 40] gave an IC50 of 2240 nM. `O=c1[nH]c(NCCN2CCN(c3n[nH]c4cc(F)ccc34)CC2)nc2ccccc12` [Compound 41] showed an IC50 of 546 nM. In the case of `O=c1[nH]c(NCCCN2CCC(Nc3cccc4ccccc34)CC2)nc2ccccc12` [Compound 42], the IC50 is reported as 8950 nM. Work on `Nc1c(Cl)cc(C(=O)NC2CCN(CCCNc3nc(O)c4ccccc4n3)CC2)c2c1CCO2` [Compound 45] yielded an IC50 of 3050 nM. For `O=C(c1ccc(F)cc1)C1CCN(CCNc2nc3ccccc3c(=O)[nH]2)CC1` [Compound 46], the IC50 was 1870 nM.

System: not given
Experiment: not given
Conditions: not given
`O=c1[nH]c(NCCN2CCN(c3n[nH]c4ccccc34)CC2)nc2ccc(Cl)cc12` [Compound 1] gave a melting point of 186 °C. In the case of `O=c1[nH]c(NCCCN2CCC(O)(c3ccc(Cl)cc3)CC2)nc2ccccc12` [Compound 2], the melting point is reported as 178.4 °C.
